Publication PMC6195125 (European journal of medicinal chemistry, 2018)
Like-named read-outs stand apart in the source and are kept apart here.

Assays:
HepG2-A16-CD81EGFP cells = test: HepG2 cytotoxicity bioluminescence assay; type: cell-based, human; conditions: read-out: HepG2 IC50
[1] = system: normal human neonatal foreskin fibroblasts (NFFs); test: Cytotoxicity against neonatal foreskin fibroblasts; type: cell-based; conditions: Fibroblast, read-out: NFF IC50
[2] = system: P. falciparum stage V gametocytes; test: ATP bioluminescence assay, mature gametocytes; type: cell-based, Plasmodium falciparum; conditions: read-out: Pf stage V gametocytes IC50
mammalian cell = conditions: read-out: Cytotoxicity IC50; cited from earlier work
P. falciparum = conditions: read-out: P. falciparum IC50; in vitro; cited from earlier work
P. falciparum Dd2 = test: microbe, parasite or virus in culture; type: cell-based; conditions: Plasmodium falciparum, DD2, read-out: P.falciparum IC50 PfDd2
P. falciparum 3D7 = type: cell-based; conditions: Plasmodium falciparum, 3D7, read-out: P.falciparum IC50 Pf3D7
[3] = system: P. berghei exo-erythrocytic forms (EEF); type: cell-based, Plasmodium berghei; conditions: read-out: Pb EEF IC50; P. berghei-Luc in HepG2-A16-CD81EGFP cells, 48 h
[4] = system: P. falciparum NF54 late stage gametocytes (IV-V); test: Imaging-based viability assay, late stage gametocytes; type: cell-based; conditions: Plasmodium falciparum, NF54, read-out: Pf LSG inhibition at 40 μM

O=C1C(O)=C([C@H]2CC[C@H](c3ccc(Cl)cc3)CC2)C(=O)c2ccccc21 [ATQ, Atovaquone]
IC50 (HepG2-A16-CD81EGFP cells; Homo sapiens, HepG2, 48 h): > 500 nM

Cc1ccc(NC(=O)CN(Cc2ccc(C(=O)NO)cc2)C(=O)c2cccc3ccccc23)cc1 [Compound 1k]
IC50 [1]: > 10000 nM

CN(C)c1ccc2nc3ccc(N(C)C)cc3[s+]c2c1 [methylene blue]
IC50 ([2]; Plasmodium falciparum, 48 h): 210000 nM

CCC(=O)CCCCC[C@@H]1NC(=O)[C@H]2CCCCN2C(=O)[C@H]([C@@H](C)CC)NC(=O)[C@H](Cc2cn(OC)c3ccccc23)NC1=O [Apicidin]
IC50 (mammalian cell): 50 to 100 nM | IC50 (P. falciparum): 200 nM

Cc1[nH]c2ccccc2c1CCNCc1ccc(/C=C/C(=O)NO)cc1 [Panobinostat]
IC50 (mammalian cell): 70 to 180 nM | IC50 (P. falciparum): 10 to 30 nM

CCN(CC)CCCC(C)Nc1ccnc2cc(Cl)ccc12 (centres unmarked) [CQ, chloroquine]
IC50 (P. falciparum Dd2): 49 nM | IC50 (P. falciparum 3D7): 11 nM

Methyl 4-((3,5-dimethyl-N-(2-oxo-2-(p-tolylamino)ethyl)benzamido)methyl)benzoate [Compound 1m]
IC50 [3]: 5550 nM | IC50 (HepG2-A16-CD81EGFP cells; Table 4): 21400 nM | IC50 (HepG2-A16-CD81EGFP cells; Table 7 and text, 48 h): 21400 nM | IC50 ([2]; ATP assay, 48 h incubation): 10100 ± 3720 nM

O=C(/C=C/c1cccc(S(=O)(=O)Nc2ccccc2)c1)NO [Belinostat]
IC50 (mammalian cell): 1420 to 2370 nM | IC50 (P. falciparum): 60 to 130 nM

O=C(CN(Cc1ccc(C(=O)NO)cc1)C(=O)c1cccc2ccccc12)NC1CCCCC1 [Compound 1g]
inhibition at 40 µM [4]: 97%

CC(/C=C/C(=O)NO)=C\[C@@H](C)C(=O)c1ccc(N(C)C)cc1 [Trichostatin A (TSA), Trichostatin A]
IC50 (P. falciparum): 8 to 11 nM
